Source: ChEMBL document CHEMBL1145594, “Carbonic anhydrase inhibitors: design of spin-labeled sulfonamides incorporating TEMPO moieties as probes for cytosolic or transmembrane isozymes” (Bioorg Med Chem Lett, 2008)

Each compound was assayed against Carbonic anhydrase 9 (Homo sapiens, UniProt Q16790).
Description: Inhibition of human cloned carbonic anhydrase 9 by CO2 hydration stopped-flow assay

`CC1(C)CC(NC(=S)NCCc2ccc(S(N)(=O)=O)cc2)CC(C)(C)N1[O]` and `CC1(C)CC(NC(=S)NCc2ccc(S(N)(=O)=O)cc2)CC(C)(C)N1[O]` are within 1.5-fold of each other in Ki: 39 nM for the first, 35 nM for the second.

Going from `CC1(C)CC(NC(=S)Nc2ccc(S(=O)(=O)Nc3ccc(S(N)(=O)=O)cc3)cc2)CC(C)(C)N1[O]` to `CC1(C)CC(NC(=S)Nc2ccc(S(=O)(=O)Nc3cccc(S(N)(=O)=O)c3)cc2)CC(C)(C)N1[O]`, the Ki rises from 30 nM to 220 nM (7.3-fold).

First: CC1(C)CC(NC(=S)Nc2ccc(S(N)(=O)=O)cc2Cl)CC(C)(C)N1[O]
Second: CC1(C)CC(NC(=S)Nc2ccc(S(N)(=O)=O)cc2F)CC(C)(C)N1[O]
The Ki of the first is 1.6-fold lower: 14 nM for the first, 22 nM for the second. The first binds more tightly here.

Going from `CC1(C)CC(NC(=S)Nc2ccc(S(=O)(=O)NCCc3ccc(S(N)(=O)=O)cc3)cc2)CC(C)(C)N1[O]` to `CC1(C)CC(NC(=S)Nc2ccc(S(=O)(=O)NCc3ccc(S(N)(=O)=O)cc3)cc2)CC(C)(C)N1[O]`, the Ki falls from 41 nM to 7 nM (5.9-fold). The second binds more tightly here.

`CC1(C)CC(NC(=S)Nc2cccc(S(N)(=O)=O)c2)CC(C)(C)N1[O]` gave a Ki of 132 nM.
